{"source": "paper PMC5218480", "about": "(PLoS ONE, 2017)", "system": "MV-4-11 cells", "assay": "Gene expression microarray analysis (Affymetrix PrimeView) and GSEA", "type": "cell-based, human", "parameters": "RFU PODN (11730768_x_at) / Fold change /veh PODN (11730768_x_at) / RFU LINC00158 (11744669_a_at) / Fold change /veh LINC00158 (11744669_a_at) / RFU DUSP10 (11751237_a_at) / Fold change /veh DUSP10 (11751237_a_at) / RFU ID3 (11757404_x_at) / Fold change /veh ID3 (11757404_x_at) / RFU PLEKHG5 (11737974_s_at) / Fold change /veh PLEKHG5 (11737974_s_at) / RFU LRRC4B (11730491_at) / Fold change /veh LRRC4B (11730491_at) / RFU GIMAP4 (11747438_a_at) / Fold change /veh GIMAP4 (11747438_a_at) / RFU KRT8 (11758183_x_at) / Fold change /veh KRT8 (11758183_x_at) / RFU CNN1 (11734310_a_at) / Fold change /veh CNN1 (11734310_a_at) / RFU VPS37D (11726825_at) / Fold change /veh VPS37D (11726825_at) / RFU C10orf10 (11716522_x_at) / Fold change /veh C10orf10 (11716522_x_at) / RFU KIR2DL2 /// KIR2DL4 /// KIR2DL5A /// KIR2DL5B /// KIR2DS1 /// KIR2DS2 /// KIR2DS3 /// KIR2DS4 /// KIR3DL3 /// KIR3DL3 /// KIR3DS1 (11738374_at) / Fold change /veh KIR2DL2 /// KIR2DL4 /// KIR2DL5A /// KIR2DL5B /// KIR2DS1 /// KIR2DS2 /// KIR2DS3 /// KIR2DS4 /// KIR3DL3 /// KIR3DL3 /// KIR3DS1 (11738374_at) / RFU C1QL1 (11718748_at) / Fold change /veh C1QL1 (11718748_at) / RFU TMPRSS4 (11747572_a_at) / Fold change /veh TMPRSS4 (11747572_a_at) / RFU HAMP (11756126_x_at) / Fold change /veh HAMP (11756126_x_at) / RFU RNFT2 (11725882_a_at) / Fold change /veh RNFT2 (11725882_a_at) / RFU NR4A2 (11747474_a_at) / Fold change /veh NR4A2 (11747474_a_at) / RFU ABCC12 (11746883_a_at) / Fold change /veh ABCC12 (11746883_a_at) / RFU TMEM136 (11760407_x_at) / Fold change /veh TMEM136 (11760407_x_at) / RFU CLDN22 /// WWC2 (11732394_at) / Fold change /veh CLDN22 /// WWC2 (11732394_at) / RFU HLA-DPB1 (11760878_x_at) / Fold change /veh HLA-DPB1 (11760878_x_at) / RFU SPINT1 (11716480_a_at) / Fold change /veh SPINT1 (11716480_a_at) / RFU GAP43 (11754022_s_at) / Fold change /veh GAP43 (11754022_s_at) / RFU A4GNT (11735810_at) / Fold change /veh A4GNT (11735810_at) / RFU PRB3 (11715151_x_at) / Fold change /veh PRB3 (11715151_x_at) / RFU TUBB4B (11761932_at) / Fold change /veh TUBB4B (11761932_at) / RFU CAPN14 (11732068_a_at) / Fold change /veh CAPN14 (11732068_a_at) / RFU TMCC2 (11721928_a_at) / Fold change /veh TMCC2 (11721928_a_at) / RFU IRGQ (11745062_a_at) / Fold change /veh IRGQ (11745062_a_at) / RFU FAM174B (11720279_a_at) / Fold change /veh FAM174B (11720279_a_at) / RFU TMPRSS4 (11748680_a_at) / Fold change /veh TMPRSS4 (11748680_a_at) / RFU FAM212B (11763350_a_at) / Fold change /veh FAM212B (11763350_a_at) / RFU PLEKHG5 (11743358_a_at) / Fold change /veh PLEKHG5 (11743358_a_at) / RFU ZSCAN30 (11745921_a_at) / Fold change /veh ZSCAN30 (11745921_a_at) / RFU CMKLR1 (11741424_a_at) / Fold change /veh CMKLR1 (11741424_a_at) / RFU LOC101060620 /// MAPK8IP1 (11723275_at) / Fold change /veh LOC101060620 /// MAPK8IP1 (11723275_at) / RFU SPTSSB (11747773_x_at) / Fold change /veh SPTSSB (11747773_x_at) / RFU PRSS12 (11739890_at) / Fold change /veh PRSS12 (11739890_at) / RFU BIN1 (11741810_x_at) / Fold change /veh BIN1 (11741810_x_at) / RFU WNT11 (11732464_a_at) / Fold change /veh WNT11 (11732464_a_at) / RFU C10orf10 (11716521_a_at) / Fold change /veh C10orf10 (11716521_a_at) / RFU C5orf56 (11738089_at) / Fold change /veh C5orf56 (11738089_at) / RFU CYB561 (11721691_x_at) / Fold change /veh CYB561 (11721691_x_at) / RFU ANKRD19P (11752326_a_at) / Fold change /veh ANKRD19P (11752326_a_at) / RFU OR2T12 /// OR2T33 /// OR2T8 (11738714_s_at) / Fold change /veh OR2T12 /// OR2T33 /// OR2T8 (11738714_s_at) / RFU VCAN (11748164_a_at) / Fold change /veh VCAN (11748164_a_at) / RFU JSRP1 (11732532_at) / Fold change /veh JSRP1 (11732532_at) / RFU KRTAP10-11 (11738290_x_at) / Fold change /veh KRTAP10-11 (11738290_x_at) / RFU MYO3A (11730013_a_at) / Fold change /veh MYO3A (11730013_a_at) / RFU EBF3 (11725865_a_at) / Fold change /veh EBF3 (11725865_a_at) / RFU CAMK2N1 (11719241_x_at) / Fold change /veh CAMK2N1 (11719241_x_at) / RFU C5orf56 (11738088_a_at) / Fold change /veh C5orf56 (11738088_a_at) / RFU OLFML3 (11715873_a_at) / Fold change /veh OLFML3 (11715873_a_at) / RFU LOC100653217 /// NTM (11731650_a_at) / Fold change /veh LOC100653217 /// NTM (11731650_a_at) / RFU MAPK11 (11762145_a_at) / Fold change /veh MAPK11 (11762145_a_at) / RFU FIZ1 (11724087_x_at) / Fold change /veh FIZ1 (11724087_x_at) / RFU OASL (11726364_x_at) / Fold change /veh OASL (11726364_x_at) / RFU SOX15 (11748057_x_at) / Fold change /veh SOX15 (11748057_x_at) / RFU CD79A (11719716_a_at) / Fold change /veh CD79A (11719716_a_at) / RFU HIST1H1D (11736915_at) / Fold change /veh HIST1H1D (11736915_at) / RFU CASKIN2 (11723855_a_at) / Fold change /veh CASKIN2 (11723855_a_at) / RFU LOC730098 (11760151_x_at) / Fold change /veh LOC730098 (11760151_x_at) / RFU OR4N2 (11742367_at) / Fold change /veh OR4N2 (11742367_at) / RFU PRRT2 (11749266_a_at) / Fold change /veh PRRT2 (11749266_a_at) / RFU SNX32 (11753110_a_at) / Fold change /veh SNX32 (11753110_a_at) / RFU CDHR5 (11726645_a_at) / Fold change /veh CDHR5 (11726645_a_at) / RFU RCAN1 (11760418_a_at) / Fold change /veh RCAN1 (11760418_a_at) / RFU FAM167A (11723789_a_at) / Fold change /veh FAM167A (11723789_a_at) / RFU FAM26E (11764081_at) / Fold change /veh FAM26E (11764081_at) / RFU ISYNA1 (11749810_s_at) / Fold change /veh ISYNA1 (11749810_s_at) / RFU ACY1 (11761880_at) / Fold change /veh ACY1 (11761880_at) / RFU 11764098_at / Fold change /veh 11764098_at / RFU SAMD14 (11745864_x_at) / Fold change /veh SAMD14 (11745864_x_at) / RFU NPB (11741838_a_at) / Fold change /veh NPB (11741838_a_at) / RFU TMPRSS6 (11731388_a_at) / Fold change /veh TMPRSS6 (11731388_a_at) / RFU KRTAP10-2 (11738614_at) / Fold change /veh KRTAP10-2 (11738614_at) / RFU ARHGAP8 /// PRR5-ARHGAP8 (11727945_x_at) / Fold change /veh ARHGAP8 /// PRR5-ARHGAP8 (11727945_x_at) / RFU KRTAP5-7 /// NADSYN1 (11734609_at) / Fold change /veh KRTAP5-7 /// NADSYN1 (11734609_at) / RFU RASL12 (11751679_a_at) / Fold change /veh RASL12 (11751679_a_at) / RFU CDKN2B (11736163_a_at) / Fold change /veh CDKN2B (11736163_a_at) / RFU PRF1 (11729649_at) / Fold change /veh PRF1 (11729649_at) / RFU, ZNF638 /// ZNF638-IT1 / Fold change vs veh, ZNF638 /// ZNF638-IT1 / RFU, PANK3 / Fold change vs veh, PANK3 / RFU, SH3YL1 / Fold change vs veh, SH3YL1 / RFU, ZEB2 / Fold change vs veh, ZEB2 / RFU, NRIP1 / Fold change vs veh, NRIP1 / RFU, PTTG1IP / Fold change vs veh, PTTG1IP / RFU, CAPN2 / Fold change vs veh, CAPN2 / RFU, MED14 / Fold change vs veh, MED14 / RFU, SNORA58 / Fold change vs veh, SNORA58 / RFU, C1orf63 / Fold change vs veh, C1orf63 / RFU, LRRFIP1 / Fold change vs veh, LRRFIP1 / RFU, NDUFAF7 / Fold change vs veh, NDUFAF7 / RFU, SLC12A2 / Fold change vs veh, SLC12A2 / RFU, IBTK / Fold change vs veh, IBTK / RFU, ESF1 / Fold change vs veh, ESF1 / Fold change vs veh, TMEM50B / RFU, TAOK1 / Fold change vs veh, TAOK1 / RFU, ACBD3 / Fold change vs veh, ACBD3 / RFU, TMA16 / Fold change vs veh, TMA16 / RFU, RWDD3 / Fold change vs veh, RWDD3 / RFU, BCAT1 / Fold change vs veh, BCAT1 / RFU, EDEM3 / Fold change vs veh, EDEM3 / RFU, TMEM33 / Fold change vs veh, TMEM33 / RFU, WDR75 / Fold change vs veh, WDR75 / RFU, AHCTF1 / Fold change vs veh, AHCTF1 / RFU, TFRC / Fold change vs veh, TFRC / RFU, ZDHHC17 / Fold change vs veh, ZDHHC17 / RFU, NOM1 / Fold change vs veh, NOM1 / RFU, ARL8B / Fold change vs veh, ARL8B / RFU, ZBTB11 / Fold change vs veh, ZBTB11 / RFU, TAMM41 / Fold change vs veh, TAMM41 / RFU, KIAA1704 /// LOC100996395 / Fold change vs veh, KIAA1704 /// LOC100996395 / RFU, ING1 / Fold change vs veh, ING1 / RFU, TRMT61B / Fold change vs veh, TRMT61B / RFU, FUBP3 / Fold change vs veh, FUBP3 / RFU, TP53 / Fold change vs veh, TP53 / RFU, TNKS2 / Fold change vs veh, TNKS2 / RFU, ZFP14 / Fold change vs veh, ZFP14 / RFU, ACTR2 / Fold change vs veh, ACTR2 / RFU, PPP3R1 / Fold change vs veh, PPP3R1 / RFU, PIK3R1 / Fold change vs veh, PIK3R1 / RFU, HNRNPA1 / Fold change vs veh, HNRNPA1 / RFU, RNF170 / Fold change vs veh, RNF170 / RFU, ZNF28 / Fold change vs veh, ZNF28 / RFU, RNGTT / Fold change vs veh, RNGTT / RFU, OGT / Fold change vs veh, OGT / RFU, BRD1 / Fold change vs veh, BRD1 / RFU, MARS / Fold change vs veh, MARS / RFU, ZNF655 / Fold change vs veh, ZNF655 / RFU, FAHD1 / Fold change vs veh, FAHD1 / RFU, BDP1 / Fold change vs veh, BDP1 / RFU, LRRCC1 / Fold change vs veh, LRRCC1 / RFU, ARID1A / Fold change vs veh, ARID1A / RFU, ZNF146 / Fold change vs veh, ZNF146 / RFU, ZNF330 / Fold change vs veh, ZNF330 / RFU, GPN3 / Fold change vs veh, GPN3 / RFU, C9orf123 / Fold change vs veh, C9orf123 / RFU, N4BP2L2 / Fold change vs veh, N4BP2L2 / RFU, ARFIP1 / Fold change vs veh, ARFIP1 / RFU, FAM179B / Fold change vs veh, FAM179B / RFU, BCL10 / Fold change vs veh, BCL10 / RFU, UHRF1BP1L / Fold change vs veh, UHRF1BP1L / RFU, BET1 / Fold change vs veh, BET1 / RFU, CNOT2 / Fold change vs veh, CNOT2 / RFU, ZNF268 / Fold change vs veh, ZNF268 / Fold change vs veh, ZNF507 / RFU, DGCR2 / Fold change vs veh, DGCR2 / RFU, WDSUB1 / Fold change vs veh, WDSUB1 / Fold change vs veh, HSP90B1 /// MIR3652 / RFU, ADSS / Fold change vs veh, ADSS / RFU, GK / Fold change vs veh, GK / RFU, ZNF148 / Fold change vs veh, ZNF148 / RFU, TAF9 / Fold change vs veh, TAF9 / RFU, SLC1A5 / Fold change vs veh, SLC1A5 / RFU, SLMO2 / Fold change vs veh, SLMO2 / RFU, ABCC4 / Fold change vs veh, ABCC4 / RFU, LOC101060439 /// RAP1B / Fold change vs veh, LOC101060439 /// RAP1B / RFU, RFX7 / Fold change vs veh, RFX7 / RFU, GTPBP10 / Fold change vs veh, GTPBP10 / RFU, CNEP1R1 / Fold change vs veh, CNEP1R1 / RFU, BIVM-ERCC5 /// ERCC5 / Fold change vs veh, BIVM-ERCC5 /// ERCC5 / RFU, ILF3 / Fold change vs veh, ILF3 / RFU 11762660_at / Fold change /veh 11762660_at / RFU VCAN (11757783_s_at) / Fold change /veh VCAN (11757783_s_at) / RFU DDX43 (11728927_at) / Fold change /veh DDX43 (11728927_at) / RFU KRT8 (11758188_x_at) / Fold change /veh KRT8 (11758188_x_at) / RFU NKD1 (11759106_at) / Fold change /veh NKD1 (11759106_at) / RFU SRD5A1 (11742802_a_at) / Fold change /veh SRD5A1 (11742802_a_at) / RFU TPSAB1 /// TPSB2 (11721975_s_at) / Fold change /veh TPSAB1 /// TPSB2 (11721975_s_at) / RFU GSTM3 (11746129_a_at) / Fold change /veh GSTM3 (11746129_a_at) / RFU IL23R (11737362_x_at) / Fold change /veh IL23R (11737362_x_at) / RFU TMEM51 (11727254_a_at) / Fold change /veh TMEM51 (11727254_a_at) / RFU PIWIL2 (11732686_x_at) / Fold change /veh PIWIL2 (11732686_x_at) / RFU ORM1 (11744905_x_at) / Fold change /veh ORM1 (11744905_x_at) / RFU CCDC152 (11743942_at) / Fold change /veh CCDC152 (11743942_at) / RFU ECM1 (11717891_a_at) / Fold change /veh ECM1 (11717891_a_at) / RFU IL23R (11748794_a_at) / Fold change /veh IL23R (11748794_a_at) / RFU TNFAIP8L3 (11732012_x_at) / Fold change /veh TNFAIP8L3 (11732012_x_at) / RFU MBOAT4 (11741988_at) / Fold change /veh MBOAT4 (11741988_at) / RFU 11764193_at / Fold change /veh 11764193_at / RFU TMEM53 (11763286_at) / Fold change /veh TMEM53 (11763286_at) / RFU MAGEB2 (11727129_at) / Fold change /veh MAGEB2 (11727129_at) / RFU TMEM200A (11744735_a_at) / Fold change /veh TMEM200A (11744735_a_at) / RFU CCDC152 (11751479_a_at) / Fold change /veh CCDC152 (11751479_a_at) / RFU FAM211A (11726209_a_at) / Fold change /veh FAM211A (11726209_a_at) / RFU RGS16 (11746705_a_at) / Fold change /veh RGS16 (11746705_a_at) / RFU VCAN (11755009_s_at) / Fold change /veh VCAN (11755009_s_at) / RFU RHOB (11743442_s_at) / Fold change /veh RHOB (11743442_s_at) / RFU RGS16 (11720943_a_at) / Fold change /veh RGS16 (11720943_a_at) / RFU RGS16 (11720944_at) / Fold change /veh RGS16 (11720944_at) / RFU, VPS4B / Fold change vs veh, VPS4B / RFU, CREB1 / Fold change vs veh, CREB1 / RFU, DNAJC13 / Fold change vs veh, DNAJC13 / RFU, GNAQ / Fold change vs veh, GNAQ / RFU, CDK5R1 / Fold change vs veh, CDK5R1 / RFU, ZRANB3 / Fold change vs veh, ZRANB3 / RFU, CUL4A / Fold change vs veh, CUL4A / RFU, CCNY / Fold change vs veh, CCNY / RFU, UFL1 / Fold change vs veh, UFL1 / RFU, COG3 / Fold change vs veh, COG3 / RFU, DIAPH2 / Fold change vs veh, DIAPH2 / RFU, SKA2 / Fold change vs veh, SKA2 / RFU, AFF3 / Fold change vs veh, AFF3 / RFU, LMF1 / Fold change vs veh, LMF1 / RFU, IPO11 / Fold change vs veh, IPO11 / RFU, DFFB / Fold change vs veh, DFFB / RFU, FOXP1 / Fold change vs veh, FOXP1 / RFU, CARD8 / Fold change vs veh, CARD8 / RFU, STRN3 / Fold change vs veh, STRN3 / RFU, ADK / Fold change vs veh, ADK / RFU, RASSF2 / Fold change vs veh, RASSF2 / RFU, WIPF1 / Fold change vs veh, WIPF1 / RFU, LARP1B / Fold change vs veh, LARP1B / RFU, RASA1 / Fold change vs veh, RASA1 / RFU, RB1 / Fold change vs veh, RB1 / RFU, PPFIA1 / Fold change vs veh, PPFIA1 / RFU, MAT2A / Fold change vs veh, MAT2A / RFU, CCT5 / Fold change vs veh, CCT5 / RFU, WDR92 / Fold change vs veh, WDR92 / RFU, CUX1 / Fold change vs veh, CUX1 / RFU, TTC7A / Fold change vs veh, TTC7A / RFU, TMEM135 / Fold change vs veh, TMEM135 / RFU, DEPTOR / Fold change vs veh, DEPTOR / RFU, CPM / Fold change vs veh, CPM / RFU, DNAJB6 / Fold change vs veh, DNAJB6 / RFU, CACNA2D3 / Fold change vs veh, CACNA2D3 / RFU, DTX4 / Fold change vs veh, DTX4 / RFU, TFCP2 / Fold change vs veh, TFCP2 / RFU, GMCL1 /// GMCL1P1 / Fold change vs veh, GMCL1 /// GMCL1P1 / RFU, AEBP2 / Fold change vs veh, AEBP2 / RFU, SNHG1 /// SNORD22 /// SNORD25 /// SNORD26 /// SNORD27 /// SNORD28 /// SNORD29 /// SNORD31 / Fold change vs veh, SNHG1 /// SNORD22 /// SNORD25 /// SNORD26 /// SNORD27 /// SNORD28 /// SNORD29 /// SNORD31 / Fold change (Aza/veh), C12orf56 (ProbeSet 11735607_a_at) / Fold change (ACY-1035/veh), C12orf56 (ProbeSet 11735607_a_at) / Fold change (Aza/veh), FGFR1OP (ProbeSet 11751329_s_at) / Fold change (ACY-1035/veh), FGFR1OP (ProbeSet 11751329_s_at) / Fold change (Aza/veh), VPS36 (ProbeSet 11739960_a_at) / Fold change (ACY-1035/veh), VPS36 (ProbeSet 11739960_a_at) / RFU SYPL1 (11715823_x_at) / Fold change /veh SYPL1 (11715823_x_at) / RFU IGFBP7 (11715501_s_at) / Fold change /veh IGFBP7 (11715501_s_at) / RFU REEP3 (11722064_at) / Fold change /veh REEP3 (11722064_at) / RFU IGLL1 (11728026_x_at) / Fold change /veh IGLL1 (11728026_x_at): dose or concentration left out as unconfirmed", "details": "ProbeSet 11732306_x_at; LIST D"}
{"smiles": "Nc1ccc(-c2cccs2)cc1NC(=O)c1ccc2c(c1)cc(C1CC1)n2CCN1CCOCC1", "note": "[ACY-1035]", "values": [{"measurement": "Fold change vs veh, CREB1", "result": 0.87}]}
